Data taken from patent publication US20040209914A1, “Aromatic sulfone hydroxamic acids and their use as protease inhibitors” (priority 2000, published 2004).
Like-named read-outs stand apart in the source and are kept apart here.

Columns and labels:
Experiment in all cases: biochemical
Conditions in all cases: fluorogenic MCA-peptide substrate, pH 7.5, room temperature
Recombinant human MMP-1 = biological target: T1, Recombinant human MMP-1 (Homo sapiens, UniProt P03956)
T1 construct: made in house; host or cells: transfected HT-1080 cells
T1 sequence (P03956 100-469): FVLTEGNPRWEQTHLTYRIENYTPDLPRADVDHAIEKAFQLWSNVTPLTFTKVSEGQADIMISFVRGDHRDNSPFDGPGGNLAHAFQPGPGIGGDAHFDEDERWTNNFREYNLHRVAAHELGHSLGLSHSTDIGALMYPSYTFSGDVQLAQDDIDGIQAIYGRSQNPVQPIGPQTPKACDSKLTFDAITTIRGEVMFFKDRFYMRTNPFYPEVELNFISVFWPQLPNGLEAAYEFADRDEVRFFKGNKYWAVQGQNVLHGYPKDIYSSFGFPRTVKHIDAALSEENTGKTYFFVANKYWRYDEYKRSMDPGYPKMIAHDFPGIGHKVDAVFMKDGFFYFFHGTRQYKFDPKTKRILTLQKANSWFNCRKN
Description: (§1) Recombinant human MMP-1, MMP-2, MMP-9, MMP-13, and were used in this assay. These enzymes were prepared in the Assignee's es following usual laboratory procedures. Specifics for preparing and e enzymes can be found in the scientific literature describing these See, e.g., Enzyme Nomenclature (Academic Press, San Diego, Calif., d the citations therein).
The MMP-1 was obtained from MMP-1 expressing transfected HT-1080 cells provided by Dr. Harold Welgus of Washington University in St. Louis, Mo. The MMP-1 was activated using 4-aminophenylmercuric acetate (APMA), and then purified over a hydroxamic acid column.
(§2) The enzyme substrate was a methoxycoumarin-containing polypeptide having the following sequence:
(§3) MCA-ProLeuGlyLeuDpaAlaArgNH2
(§4) Here, “MCA” is methoxycoumarin and “Dpa” is 3-(2,4-dinitrophenyl)-L-2,3-diaminopropionyl alanine.
(§5) These solutions were then compared to a control (which contained equal amount of DMSO/buffer solution, but no hydroxamate compound) using Microfluor™ White Plates (Dynatech, Chantilly, Va.). Specifically, The MMPs were activated with APMA or trypsin. […] The control likewise was incubated at room temperature in separate plates with the MMP and 4 uM of the MMP substrate. […] Inhibition was measured as a reduction in fluorescent intensity as a function of inhibitor concentration using a Perkin Elmer (Norwalk, Conn.) L550 plate reader. The IC50's were then calculated from these measurements.

Recombinant human MMP-2 = biological target: T2, Recombinant human MMP-2 (Homo sapiens, UniProt P08253)
T2 construct: made in house
T2 sequence (P08253 110-660): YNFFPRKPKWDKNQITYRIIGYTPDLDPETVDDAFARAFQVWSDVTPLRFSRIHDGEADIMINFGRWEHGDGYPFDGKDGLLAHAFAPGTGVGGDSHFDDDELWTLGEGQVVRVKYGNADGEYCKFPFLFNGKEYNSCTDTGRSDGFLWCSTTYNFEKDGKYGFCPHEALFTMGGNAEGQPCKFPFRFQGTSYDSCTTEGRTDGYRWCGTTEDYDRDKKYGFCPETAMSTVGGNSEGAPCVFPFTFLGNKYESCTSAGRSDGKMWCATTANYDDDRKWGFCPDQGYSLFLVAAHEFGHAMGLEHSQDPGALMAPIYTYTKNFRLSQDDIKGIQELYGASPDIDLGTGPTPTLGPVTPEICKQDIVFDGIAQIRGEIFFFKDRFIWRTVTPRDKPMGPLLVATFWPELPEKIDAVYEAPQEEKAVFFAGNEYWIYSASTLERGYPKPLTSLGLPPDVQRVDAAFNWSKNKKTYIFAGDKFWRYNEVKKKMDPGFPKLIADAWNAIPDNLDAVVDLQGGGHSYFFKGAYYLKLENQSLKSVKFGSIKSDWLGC
Description: as §1
The MMP-2 was obtained from MMP-2 expressing transfected cells provided by Dr. Gregory Goldberg of Washington University.
as §2, §3, §4, §5

Recombinant human MMP-13 = biological target: T3, Recombinant human MMP-13 (Homo sapiens, UniProt P45452)
T3 construct: made in house; host or cells: baculovirus / insect cells
Description: as §1
The expressed proenzyme was first purified over a heparin agarose column, and then over a chelating zinc chloride column. The proenzyme was then activated by APMA for use in the assay.
as §2, §3, §4, §5

With `O=C(c1ccco1)N1CCN(C(=O)C2CCN(c3ccc(S(=O)(=O)C4(C(=O)NO)CCOCC4)cc3)CC2)CC1` [Example 13] the IC50 (Recombinant human MMP-1) was > 10000 nM, the IC50 (Recombinant human MMP-2; read-out: MMP-2 IC50) was 3500 nM and the IC50 (Recombinant human MMP-13; read-out: MMP-13 IC50) was 31.6 nM.

In the case of `O=C(C1CCN(c2ccc(S(=O)(=O)C3(C(=O)NO)CCOCC3)cc2)CC1)N1CCN(c2ccccc2F)CC1` [Example 12], the IC50 (Recombinant human MMP-1) is reported as > 10000 nM, the IC50 (Recombinant human MMP-2; MMP-2 IC50(nM)) is reported as 1400 nM and the IC50 (Recombinant human MMP-13; MMP-13 IC50(nM)) is reported as 6.7 nM.

In the case of `CCC(C)Cc1ccc(C(=O)C2CCN(c3ccc(S(=O)(=O)C4(C(=O)NO)CCN(CC)CC4)cc3)CC2)cc1` (stereo not drawn) [Example 233], the IC50 (Recombinant human MMP-1) is reported as > 10000 nM, the IC50 (Recombinant human MMP-2; read-out: MMP-2 IC50) is reported as 1050 nM and the IC50 (Recombinant human MMP-13; read-out: MMP-13 IC50) is reported as 1.2 nM.

In the case of `CCOC(=O)CN1CCN(C(=O)C2CCN(c3ccc(S(=O)(=O)C4(C(=O)NO)CCOCC4)cc3)CC2)CC1` [Example 11], the IC50 (Recombinant human MMP-1) is reported as > 10000 nM, the IC50 (Recombinant human MMP-2; read-out: MMP-2 IC50) is reported as 2700 nM and the IC50 (Recombinant human MMP-13; read-out: MMP-13 IC50) is reported as 37 nM.

With `C=CCN1CCC(C(=O)NO)(S(=O)(=O)c2ccc(N3CCC(C(=O)c4ccc(C)c(C)c4)CC3)cc2)CC1` [Example 158] the IC50 (Recombinant human MMP-1) was > 10000 nM, the IC50 (Recombinant human MMP-2; read-out: MMP-2 IC50) was 218 nM and the IC50 (Recombinant human MMP-13; read-out: MMP-13 IC50) was 2.4 nM.

In the case of `COCCN1CCN(C(=O)C2CCN(c3ccc(S(=O)(=O)C4(C(=O)NO)CCOCC4)cc3)CC2)CC1` [Example 18], the IC50 (Recombinant human MMP-1) is reported as > 10000 nM, the IC50 (Recombinant human MMP-2; read-out: MMP-2 IC50) is reported as > 10000 nM and the IC50 (Recombinant human MMP-13; read-out: MMP-13 IC50) is reported as > 10000 nM.

In the case of `CCN1CCC(C(=O)NO)(S(=O)(=O)c2ccc(N3CCC(C(=O)c4ccc(CCC(C)C)c(F)c4)CC3)cc2)CC1` [Example 249], the IC50 (Recombinant human MMP-1) is reported as > 10000 nM, the IC50 (Recombinant human MMP-2; read-out: MMP-2 IC50) is reported as > 10000 nM and the IC50 (Recombinant human MMP-13; read-out: MMP-13 IC50) is reported as 5.8 nM.

With `O=C(C1CCN(c2ccc(S(=O)(=O)C3(C(=O)NO)CCOCC3)cc2)CC1)N1CCN(C2CCCC2)CC1` [Example 14] the IC50 (Recombinant human MMP-1) was > 10000 nM, the IC50 (Recombinant human MMP-2; read-out: MMP-2 IC50) was > 10000 nM and the IC50 (Recombinant human MMP-13; read-out: MMP-13 IC50) was 45 nM.

`COc1ccc(C2CCN(c3ccc(S(=O)(=O)C4(C(=O)NO)CCN(CC5CC5)CC4)cc3)CC2)cc1` [Example 268] was tested, and the IC50 (Recombinant human MMP-1) was > 10000 nM, the IC50 (Recombinant human MMP-2; read-out: MMP-2 IC50) was 5 nM and the IC50 (Recombinant human MMP-13; read-out: MMP-13 IC50) was 1.2 nM.

`COCCN1CCC(C(=O)NO)(S(=O)(=O)c2ccc(N3CCC(C(=O)c4ccc(CC(C)C)cn4)CC3)cc2)CC1` [Example 253] was tested, and the IC50 (Recombinant human MMP-1) was > 10000 nM, the IC50 (Recombinant human MMP-2; read-out: MMP-2 IC50) was 38.7 nM and the IC50 (Recombinant human MMP-13; read-out: MMP-13 IC50) was 1.7 nM.

`CCN1CCC(C(=O)NO)(S(=O)(=O)c2ccc(N3CCC(C(=O)c4ccc(CCCC(C)O)cc4)CC3)cc2)CC1` (stereo not drawn) [Example 247] was tested, and the IC50 (Recombinant human MMP-1) was > 10000 nM, the IC50 (Recombinant human MMP-2; read-out: MMP-2 IC50) was 111 nM and the IC50 (Recombinant human MMP-13; read-out: MMP-13 IC50) was 0.3 nM.

`CCN1CCC(C(=O)NO)(S(=O)(=O)c2ccc(N3CCC(C(=O)c4ccc(CCCC(C)C)cc4)CC3)cc2)CC1` [Example 236] was tested, and the IC50 (Recombinant human MMP-1) was > 10000 nM, the IC50 (Recombinant human MMP-2; read-out: MMP-2 IC50) was 1850 nM and the IC50 (Recombinant human MMP-13; read-out: MMP-13 IC50) was 1.5 nM.

`CCC(CC)Cc1ccc(C(=O)C2CCN(c3ccc(S(=O)(=O)C4(C(=O)NO)CCN(CC)CC4)cc3)CC2)cc1` [Example 234] was tested, and the IC50 (Recombinant human MMP-1) was > 10000 nM, the IC50 (Recombinant human MMP-2; read-out: MMP-2 IC50) was 2440 nM and the IC50 (Recombinant human MMP-13; read-out: MMP-13 IC50) was 7.5 nM.

Work on `COCCN1CCC(C(=O)NO)(S(=O)(=O)c2ccc(N3CCC(C(=O)c4ccc(CC5CCCCC5)cc4)CC3)cc2)CC1` [Example 203] yielded an IC50 (Recombinant human MMP-1) of 2370 nM, an IC50 (Recombinant human MMP-2; read-out: MMP-2 IC50) of 816 nM and an IC50 (Recombinant human MMP-13; read-out: MMP-13 IC50) of 0.6 nM.

With `CCN1CCC(C(=O)NO)(S(=O)(=O)c2ccc(N3CCC(C(=O)c4ccc(C)cc4)CC3)cc2)CC1` [Example 208] the IC50 (Recombinant human MMP-1) was > 10000 nM, the IC50 (Recombinant human MMP-2; read-out: MMP-2 IC50) was 19.6 nM and the IC50 (Recombinant human MMP-13; read-out: MMP-13 IC50) was 0.1 nM.

For `O=C(c1ccc(CC2CCCC2)cc1)C1CCN(c2ccc(S(=O)(=O)C3(C(=O)NO)CCOCC3)cc2)CC1` [Example 379], the IC50 (Recombinant human MMP-1) was > 10000 nM, the IC50 (Recombinant human MMP-2; read-out: MMP-2 IC50) was 1270 nM and the IC50 (Recombinant human MMP-13; read-out: MMP-13 IC50) was 0.6 nM.

`O=C(c1ccc(Br)cc1)C1CCN(c2ccc(S(=O)(=O)C3(C(=O)NO)CCOCC3)cc2)CC1` [Example 378] was tested, and the IC50 (Recombinant human MMP-1) was > 10000 nM, the IC50 (Recombinant human MMP-2; read-out: MMP-2 IC50) was 28.4 nM and the IC50 (Recombinant human MMP-13; read-out: MMP-13 IC50) was 0.3 nM.

`COc1ccc(C(=O)C2CCN(c3ccc(S(=O)(=O)C4(C(=O)NO)CCN(S(C)(=O)=O)CC4)cc3)CC2)cc1` [Example 206] was tested, and the IC50 (Recombinant human MMP-1) was > 10000 nM, the IC50 (Recombinant human MMP-2; read-out: MMP-2 IC50) was 199 nM and the IC50 (Recombinant human MMP-13; read-out: MMP-13 IC50) was 1.8 nM.
